The text below walks through data of PMC6171417, “Carbonic anhydrase inhibition with a series of novel benzenesulfonamide-triazole conjugates” (Journal of Enzyme Inhibition and Medicinal Chemistry, 2018).

What all share (assay): cells
What all share (parameters): species or system NCI human tumour cell line panel; NCI one-dose anti-proliferative screen, human tumour cell line panel, growth inhibition percent (GI%)

One test relates to T-47D. To be noted: Homo sapiens, T47D; growth inhibition (GI%), single dose. The method, then: (§1) Ten of the newly synthesised 1,2,3-triazolo benzenesulfonamide derivatives were selected by NCI (Bethesda, MD) for evaluating their anti-proliferative activity. The selected compounds were subjected to a primary in vitro one-dose ([…]) anti-proliferative assay against 57 human tumour cell lines following the previously reported method[30] and their obtained growth inhibition percent (GI%) are presented in Table 2. A subset of ten triazolo-benzenesulfonamides (3, 5, 6, 7, 9, 11, 16–18, and 20) were selected and subjected to an in vitro anti-proliferative screening against a panel of 57 cancer cell lines at NCI at an initial high dose ([…]). The human cell lines used were derived from nine cancer types: leukaemia, lung, colon, CNS, melanoma, ovarian, renal, prostate and breast cancers.

For another test, the system named is PC-3. To be noted: Homo sapiens, PC-3; growth inhibition (GI%), single dose. The method, then: as §1
For a further test, the system named is CCRF-CEM. Conditions: Homo sapiens, CCRF-CEM; growth inhibition (GI%), single dose. The method, then: as §1
For another test, the system named is NCI-H522. Conditions: Homo sapiens, NCI-H522; growth inhibition (GI%), single dose. The procedure:
as §1

Another test relates to HOP-92. Conditions: Homo sapiens, HOP-92; growth inhibition (GI%), single dose. The method, then:
as §1

In a further test the test system is NCI-H23. Conditions: Homo sapiens, NCI-H23; growth inhibition (GI%), single dose. The method, then:
as §1

Another test deals with MOLT-4. To be noted: Homo sapiens, MOLT-4; growth inhibition (GI%), single dose. The procedure: as §1
For the next test, the system named is HS 578T. To be noted: Homo sapiens, Hs-578T; growth inhibition (GI%), single dose. The method, then: as §1
The next test has as its system UACC-257. Conditions: Homo sapiens, UACC-257; growth inhibition (GI%), single dose. The procedure: as §1
The subject of a further test is HCT-116. Conditions: Homo sapiens, HCT-116; growth inhibition (GI%), single dose. The procedure: as §1
A further test deals with A549/ATCC. Conditions: Homo sapiens, A549; growth inhibition (GI%), single dose. The method, then:
as §1

The test system of the next test is HT29. Conditions: Homo sapiens, HT-29; growth inhibition (GI%), single dose. The procedure: as §1
The next test has as its system U251. Conditions: Homo sapiens, U-251; growth inhibition (GI%), single dose. The procedure:
as §1

The subject of a further test is UACC-62. Conditions: Homo sapiens, UACC-62; growth inhibition (GI%), single dose. The procedure:
as §1

In a further test the test system is SNB-75. To be noted: Homo sapiens, SNB-75; growth inhibition (GI%), single dose. The procedure:
as §1

Another test relates to NCI-H322M. To be noted: Homo sapiens, NCI-H322M; growth inhibition (GI%), single dose. The procedure:
as §1

In a further test the test system is OVCAR-8. Conditions: Homo sapiens, OVCAR-8; growth inhibition (GI%), single dose. The procedure: as §1
Another test has as its system NCI-H226. Conditions: Homo sapiens, NCI-H226; growth inhibition (GI%), single dose. The procedure: as §1
For another test, the system named is SK-OV-3. Conditions: Homo sapiens, SK-OV-3; growth inhibition (GI%), single dose. The method, then:
as §1

The subject of another test is MCF7. To be noted: Homo sapiens, MCF7; growth inhibition (GI%), single dose. The method, then:
as §1

As to `N#Cc1nnn(-c2ccc(S(N)(=O)=O)cc2)c1NCC(=O)c1ccccc1` [compound 7, 7], the inhibition (commonly the share of the control response that was lost under treatment) at 10 µM is 4.6% in the test on T-47D; 15.9% in the test on PC-3; 16.4% with CCRF-CEM; 16.1% with NCI-H522; 13.5% with HOP-92; 2.1% with NCI-H23. In addition, the inhibition at 10 µM in the test with MOLT-4 is 10.2%; in the test with HS 578T, 1.7%; in the test on UACC-257, 11.7%; in the test with HCT-116 it was 5.1%; in the test on A549/ATCC it was 6.7%; in the test on HT29 it was 4.5%. Further, the inhibition at 10 µM was 6.4% in the test with U251; 4% with UACC-62; 20.1% with SNB-75; 8.8% in the test on NCI-H322M; 2.4% with OVCAR-8; 11.8% in the test with NCI-H226. Also, the inhibition at 10 µM with SK-OV-3 was 8.2%; in the test with MCF7, 6.7%.

As to `CN(C)c1ccc(-c2nc3c(nnn3-c3ccc(S(N)(=O)=O)cc3)c(N)c2C#N)cc1` [compound 17, 4-(7-amino-6-cyano-5-(4-(dimethylamino)phenyl)-3H-[1,2,3]triazolo[4,5-b]pyridin-3-yl)benzenesulfonamide], the inhibition at 10 µM was 5.2% in the test with T-47D; 13.8% in the test on PC-3; 11.4% in the test on CCRF-CEM; 14.8% with NCI-H522; 18.5% with HOP-92; 9.8% in the test with NCI-H23. Further, the inhibition at 10 µM with MOLT-4 turned out to be 2.3%; in the test on HS 578T, 2.9%; with UACC-257 it was 8.4%; with HCT-116, 3.6%; in the test with A549/ATCC, 16.3%; with HT29 it was 3.3%. Also, the inhibition at 10 µM came to 12.6% in the test with U251; 11.6% with UACC-62; 21.6% with SNB-75; 3.9% in the test on NCI-H322M; 11.4% in the test on OVCAR-8; 16.9% with NCI-H226. Further, the inhibition at 10 µM in the test on SK-OV-3 turned out to be 12.3%; with MCF7 it was 7.3%.
